Values of other authors as cited in patent US20210315865A1 (Biohaven Therapeutics Ltd., priority 2018, published 2021).

Settings: taken with meals

Nc1nc2ccc(OC(F)(F)F)cc2s1 [riluzole, 6-(trifluoromethoxy)benzothiazol-2-amine]
food effect on exposure: reduced exposure when taken with meals
